Data as given in article PMC12736563, “NMR Unveils Activity Mechanism of Linear Spider Venom Peptide Fragments Selected by Neural Networks Against Staphylococci Including MRSA” (Pharmaceutics, 2025).
Converted amounts (≈) assume the structure as drawn. “Also recorded” adds a separate entry of the source. Where two headings read alike, the source gives them in different places. Ends that are not written are not given here.

Experiments:
[1] = system: S. aureus ATCC 25923; experiment: microbe, parasite or virus in culture; format: cell-based, Staphylococcus aureus; conditions: ~1 × 10^5 cells/mL, starting 200 μg/mL
Protocol: (§1) For antimicrobial activity determination, Gram-positive strains (Staphylococcus aureus 209P, ATCC 29213, ATCC 25923, ATCC 43300 [MRSA], S. epidermidis ATCC 14990) were used. Experiments were conducted at bacterial concentrations of (0.5–1) × 10^5 cells/mL. […] Briefly, overnight cultures in Mueller-Hinton broth (MHB, HiMedia, Mumbai, Maharashtra, India) were diluted 1:100 into fresh MHB and incubated at 37 °C for 3 h. Cultures were then adjusted to ~1 × 10^5 cells/mL (by OD600) and used as an inoculate. Peptide stocks (10 mg/mL in water) were prepared in MHB to achieve a starting concentration of 200 μg/mL and subsequently diluted twofold.

[2] = system: S. aureus ATCC 43300 (MRSA); experiment: microbe, parasite or virus in culture; format: cell-based, Staphylococcus aureus
Protocol: as §1

[3] = system: S. aureus ATCC 29213 (MSSA); experiment: microbe, parasite or virus in culture; format: cell-based, Staphylococcus aureus; conditions: two-fold serial dilution in MHB, ~1 × 10^5 cells/mL, starting 200 μg/mL
Protocol: as §1

[4] = system: S. epidermidis ATCC 14990; experiment: microbe, parasite or virus in culture; format: cell-based, Staphylococcus epidermidis; conditions: ~1 × 10^5 cells/mL, starting 200 μg/mL
Protocol: as §1

[5] = system: human red blood cells; experiment: Hemolytic activity; format: cell-based; conditions: for Hemolysis (%): fresh human capillary blood, two independent experiments; for Hemolytic activity (in words): human red blood cells, up to 100 μM
Protocol: Hemolytic activity was assessed using fresh capillary blood from a human volunteer, as described in [28]. Each peptide’s hemolytic activity was tested in two independent experiments.

[6] = system: E. coli, ATCC 25922; experiment: microbe, parasite or virus in culture; format: cell-based
[7] = system: E. coli, ΔtolC; experiment: microbe, parasite or virus in culture; format: cell-based
[8] = system: S. aureus 209P cells; experiment: Confocal microscopy of plasma membrane permeability to BCECF and PI; format: cell-based, Staphylococcus aureus; conditions: 25 µM peptide, 15 min, Mueller–Hinton broth, CLSM
Protocol: Confocal laser scanning microscopy (CLSM) measurements were performed with an SP2 confocal inverted microscope (Leica Microsystems GmbH, Wetzlar, Germany) using the water-immersion 63×, 1.2 NA HCX PL APO objective. A typical voxel size was 0.15 × 0.15 × 0.9 μm. Excitation wavelengths were 561 nm for propidium iodide (PI) and 488 nm for 2′,7′-Bis-(2-carboxyethyl)-5-(and-6)-carboxyfluorescein (BCECF) (Sigma-Aldrich, MO, USA). Laser power was 3–10 μW the sample. Fluorescence was detected in the 500–550 and 650–700 nm ranges for BCECF and PI, respectively. S. aureus 209P cells were preincubated with acetoxymethyl ester of BCECF (10 μM) in Hank’s balanced salt solution for 30 min at 37 °C, exposed to PI (15 μM) and peptide XIII (25 μM) for 15 min in Mueller–Hinton broth, centrifuged gently in order to concentrate the cells (1600× g, 5 min, 20 °C), and examined by CLSM. Control cells were subjected to the same procedures but without addition of the peptide.

[9] = system: S. aureus 209P; experiment: MIC, two-fold serial dilution in Mueller-Hinton broth; format: cell-based, Staphylococcus aureus; conditions: conditions identical to those of Figure 2
Protocol: as §1
The mechanism was investigated using the S. aureus 209P strain.

[10] = system: E. coli, lptD; experiment: microbe, parasite or virus in culture; format: cell-based
[11] = pKa of His12 side chain by NMR pH titration; format: physicochemical
Protocol: NMR experiments in aqueous and micellar solutions were performed using samples containing 0.2–1.0 mM of peptide IX in 5% D2O at pH of 4.5. To model a membrane environment, 1-palmitoyl-2-hydroxy-sn-glycero-3-phospho-(1′-rac-glycerol) (LPPG, 16:0 Lyso PG, Avanti, Alabaster, AL, USA) was added stepwise to the aqueous peptide IX sample using a concentrated stock solution until a detergent-to-peptide (D:P) molar ratio of 140:1 was achieved. The NMR spectra were acquired on a Bruker Avance III 800 MHz spectrometer (Karlsruhe, Germany) equipped with a room-temperature triple-resonance (^1H, ^13C, ^15N) probe. Almost complete ^1H, ^13C, and ^15N resonance assignments for peptide IX in aqueous solution and LPPG micelles were obtained via a combination of 2D ^1H-TOCSY (τm = 60 ms), ^1H-NOESY (τm = 150 ms) and natural abundance ^13C-HSQC and ^15N-HSQC spectra measured at 5 °C and 45 °C, respectively, using the CARA 1.9.1.7 software (http://cara.nmr.ch/doku.php/Home (accessed on 12 December 2024)). […] The temperature gradients of amide protons (∆δ^1H^N/∆T) were measured from a series of 2D TOCSY spectra in water and 2D NOESY spectra in LPPG acquired in the temperature range of 15–45 °C. The pH-dependences of the ^1H^N and ^1H^δ2 His12 chemical shifts were measured in the pH range 2–9 from a series of 2D TOCSY spectra in water at 30 °C and 2D NOESY spectra in LPPG micelles at 45 °C. […]

[12] = Solubility in water (statement); format: physicochemical; conditions: aqueous solution; NMR samples 0.2–1.0 mM
[13] = target: His12 (position 12, KFAGKHL----); experiment: NMR
[14] = two-fold serial dilution in MHB, Figure 2
[15] = S. aureus ATCC 43300 (MRSA), two-fold serial dilution in MHB, ~1 × 10^5 cells/mL, starting 200 μg/mL, Figure 2
[16] = two-fold serial dilution in MHB, values in Figure 2

| Molecule | MIC [1, 14] | MIC [2, 15] | MIC ([3]; Figure 2) | MIC [4, 16] | further results |
| --- | --- | --- | --- | --- | --- |
| FMKRLISKGKIGKEKLVAF [II] | > 200.00 µg/mL | > 200.00 µg/mL | > 200.00 µg/mL | > 200.00 µg/mL |  |
| FWFKALKSVAKFIA-NH2 [XIII] | 6.25 µg/mL | 6.25 µg/mL | 3.12 µg/mL | 6.25 µg/mL | Hemolysis (%) ([5]; 25 μM peptide): 0%; Hemolysis (%) ([5]; 50 μM peptide): 0%; Hemolysis (%) ([5]; 100 μM peptide): 0%; Hemolytic activity (in words) [5]: minimal hemolytic activity; also recorded: lack of hemolysis; MIC [6]: 50 µg/mL; MIC ([7]; E. coli, ΔtolC): 50 µg/mL; entry of propidium iodide (PI) into cells [8]: PI penetrates into cells; leakage of BCECF from cells [8]: is released from them; MIC [9]: 6.25 µg/mL; MIC ([10]; E. coli, lptD): 100 µg/mL |
| ILADLIAKLKVRAA-NH2 [V] | > 200.00 µg/mL | > 200.00 µg/mL | > 200.00 µg/mL | > 200.00 µg/mL |  |
| IWLSLMKFAGKHL [X] | > 200.00 µg/mL | > 200.00 µg/mL | > 200.00 µg/mL | > 200.00 µg/mL |  |
| SLMKFAGKHLAKHQLSKMG-NH2 [VI] | > 200.00 µg/mL | > 200.00 µg/mL | > 200.00 µg/mL | > 200.00 µg/mL |  |
| CC1(C)S[C@@H]2[C@H](NC(=O)[C@H](N)c3ccccc3)C(=O)N2[C@H]1C(=O)O [Ampicillin, reference compound] |  |  |  |  | MIC ([6]; Escherichia coli, ATCC25922, read-out: MIC): 3.12 µg/mL (≈ 8.94 µM) |
| AIWSSAMQFFIKHLKK [III] | > 200.00 µg/mL | > 200.00 µg/mL | > 200.00 µg/mL | > 200.00 µg/mL |  |
| GWMKALKEHVEKLNKTGKLK [I] | > 200.00 µg/mL | > 200.00 µg/mL | > 200.00 µg/mL | > 200.00 µg/mL |  |
| CN[C@H](CC(C)C)C(=O)N[C@H]1C(=O)N[C@@H](CC(N)=O)C(=O)N[C@H]2C(=O)N[C@H]3C(=O)N[C@H](C(=O)N[C@H](C(=O)O)c4cc(O)cc(O)c4-c4cc3ccc4O)[C@H](O)c3ccc(c(Cl)c3)Oc3cc2cc(c3O[C@@H]2O[C@H](CO)[C@@H](O)[C@H](O)[C@H]2O[C@H]2C[C@](C)(N)[C@H](O)[C@H](C)O2)Oc2ccc(cc2Cl)[C@H]1O [vancomycin, reference compound] |  |  |  |  | MIC ([1]; Staphylococcus aureus, ATCC25923, two-fold serial dilution in MHB, Figure 2, read-out: MIC): 3.12 µg/mL (≈ 2.15 µM); MIC ([2]; Staphylococcus aureus): 1.56 µg/mL (≈ 1.08 µM); MIC ([3]; Staphylococcus aureus, Figure 2, read-out: MIC): 0.78 µg/mL (≈ 0.538 µM); MIC ([4]; Staphylococcus epidermidis, ATCC14990, two-fold serial dilution in MHB, values in Figure 2, read-out: MIC): 0.78 µg/mL (≈ 0.538 µM) |
| IWLSLMKFAGKHL-NH2 [IX] | 25.00 µg/mL | 25.00 µg/mL | 25.00 µg/mL | 12.50 µg/mL | Hemolysis (%) ([5]; 25 μM peptide): 0%; Hemolysis (%) ([5]; 50 μM peptide): 14%; Hemolysis (%) ([5]; 100 μM peptide): 100%; MIC [6]: >200 µg/mL; pKa of His12 side chain ([11]; LPPG micelles, D:P 140:1, 2D NOESY at 45 °C): 7.86 ± 0.24; pKa of His12 side chain ([11]; aqueous solution, 5% D2O, 2D TOCSY at 30 °C, pH range of 3–8): 6.02 ± 0.05; MIC ([7]; E. coli, ΔtolC): 200 µg/mL; solubility in water (in words) [12]: water-soluble; MIC ([10]; E. coli, lptD): 50 µg/mL |
| CCn1cc(C(=O)O)c(=O)c2ccc(C)nc21 [Nalidixic acid, reference compound] |  |  |  |  | MIC ([7]; Escherichia coli): 1.56 µg/mL (≈ 6.72 µM); MIC ([10]; Escherichia coli): 1.56 µg/mL (≈ 6.72 µM) |
| LSLMKFAGKHLAKH-NH2 [VIII] | > 200.00 µg/mL | > 200.00 µg/mL | > 200.00 µg/mL | > 200.00 µg/mL |  |
| IIWLPVLKFLASHV-NH2 [XIV] | 25.00 µg/mL | 12.50 µg/mL | 12.50 µg/mL | 6.25 µg/mL | Hemolysis (%) ([5]; 25 μM peptide): 0%; Hemolysis (%) ([5]; 50 μM peptide): 60%; Hemolysis (%) ([5]; 100 μM peptide): 100%; MIC [6]: 200 µg/mL; MIC ([7]; E. coli, ΔtolC): >200 µg/mL; MIC ([10]; E. coli, lptD): 100 µg/mL |
| LSLMKFAGKHLAKHQL [VII] | > 200.00 µg/mL | > 200.00 µg/mL | > 200.00 µg/mL | 25.00 µg/mL | MIC [6]: >200 µg/mL; MIC ([7]; E. coli, ΔtolC): >200 µg/mL; MIC ([10]; E. coli, lptD): 12.5 µg/mL |
| KFAGKHLAKH-NH2 [XII] | > 200.00 µg/mL | > 200.00 µg/mL | > 200.00 µg/mL | > 200.00 µg/mL |  |
| IWWTAVKFFGKQL-NH2 [XV, 13-residue fragment of Lycosin 9o from Lycosa hispanica; negative control in hemolysis] | > 200.00 µg/mL | > 200.00 µg/mL | > 200.00 µg/mL | > 200.00 µg/mL | Hemolysis (%) ([5]; 25 μM peptide): 0%; Hemolysis (%) ([5]; 50 μM peptide): 0%; Hemolysis (%) ([5]; 100 μM peptide): 0%; Hemolytic activity (in words) [5]: lack of hemolytic activity |
| LMKFAGKHLAKH-NH2 [XI] | > 200.00 µg/mL | > 200.00 µg/mL | > 200.00 µg/mL | > 200.00 µg/mL |  |
| IWLSLMKFAGKHL [Peptide IX (N-terminal 13-residue fragment of Lycosin 9i) (Lycosa hispanica)] |  |  |  |  | pKa ([13]; 30 °C, free peptide in aqueous solution, disordered (random coil), 1 mM): 6.02±0.05; pKa ([13]; 45 °C, bound to anionic LPPG micelles, structured (helix-like Ile1-Met6, α-helix Lys7-Leu13)): 7.89 ± 0.24 |
